According to ChEMBL document CHEMBL1156829 (Proc Natl Acad Sci U S A, 2008):

How the values were obtained:
[1] = NOVARTIS: Cytotoxicity against human hepatocellular carcinoma cell line (Huh7); type: toxicity, cell-based, Huh-7; conditions: Huh7 cells (hepatocellular carcinoma cell line)
Plasmodium falciparum [2] = experiment: NOVARTIS: Inhibition of Plasmodium falciparum W2 (drug-resistant) proliferation in erythrocyte-based infection assay; type: functional, organism-based; conditions: Plasmodium falciparum, W2; read-out: EC50
Plasmodium falciparum [3] = experiment: NOVARTIS: Inhibition of Plasmodium falciparum 3D7 (drug-susceptible) proliferation in erythrocyte-based infection assay; type: functional, organism-based; conditions: Plasmodium falciparum, 3D7

Compound | CC50 [1] [nM] | EC50 (Plasmodium falciparum [2]) [nM] | EC50 (Plasmodium falciparum [3]) [nM]
COc1ccc2nc(C)cc(Nc3ccc(Cl)c(Cl)c3)c2c1 | 6250 | 426 | 249
O=C(Nc1ccc(-c2cnc(-c3ccc(NC(=O)c4cccc([N+](=O)[O-])c4)cc3)nc2)cc1)c1cccc([N+](=O)[O-])c1 | > 10000 | 681 | > 480
COc1ccc(OC)c(-c2ccc(O)c(CNCC(C)c3ccccc3)c2)c1 (centres undefined) | > 10000 | 672 | 960
Oc1ccc(-c2ccc(F)cc2)cc1CNCCN1CCOCC1 | > 10000 | 681 | 901
COc1ccc(C2SCCN2S(=O)(=O)c2cccc([N+](=O)[O-])c2)cc1OC (centres undefined) | > 10000 | > 676 | > 1250
CCCCNC(=O)CCCNC(=O)Cn1cnc2sc3c(c2c1=O)CCCC3 | > 10000 | > 683 | > 1250
CC(C)CN(C(C(=O)NC(CN1CCCC1)c1ccccc1)c1ccccc1)S(=O)(=O)c1ccccn1 (centres undefined) | > 10000 | 682 | 1320
CC(C)NC(=O)c1ccc2c(c1)N=C(/C=C/c1ccccc1)N(CC1CCCCC1)C2 | > 10200 | 696 | > 1250
Cc1cc(Oc2ncnc(N(C)CC(=O)OC(C)(C)C)c2[N+](=O)[O-])c2nncn2n1 | > 10000 | > 684 | > 1630
CCOC(=O)N1CCN(S(=O)(=O)c2ccc(C(=O)Nc3sc4c(c3C(N)=O)CCN(CC)C4)cc2)CC1 | 20400 | 1390 | > 12500
CCN(CC)CCCC(C)Nc1nc(/C=C/c2ccccc2OC)nc2cc(Cl)ccc12 (centres undefined) | > 10000 | 688 | 878
Cc1ccc(-c2c3c(nc4sc(C(=O)Nc5ccc(Cl)cc5)c(N)c24)CCCC3)o1 | > 100000 | 6780 | 8310
COc1ccc(Nc2nc(Nc3ccc(OC)cc3)c3[nH]ccc3n2)cc1 | > 10000 | 678 | 667
CC(=O)Nc1ccc(NC2=CC(=NS(=O)(=O)c3ccccc3)c3ccccc3C2=O)cc1 | 6880 | 466 | 509
Cc1nnc2sc(SCc3cccc([N+](=O)[O-])c3)nn2c1=O | > 13900 | 942 | > 1070
CCn1c(C)cc(/C=C2\C(=O)NC(=O)N(c3cccc(Cl)c3)C2=O)c1C | > 10000 | 679 | > 674
Clc1ccccc1Nc1nc2nonc2nc1Nc1cccc(Br)c1 | > 10000 | > 678 | > 1250
Cc1cc(NS(=O)(=O)c2ccc(NC(=O)c3ccc([N+](=O)[O-])cc3)cc2)no1 | > 10000 | > 678 | > 1250
COc1cccc(CCN2Cc3ccc(C(=O)NC(C)C)cc3N=C2c2ccc(C)cc2)c1 | > 10000 | 680 | 938
NC(=O)C(Cc1ccccc1)Nc1ccc([N+](=O)[O-])cc1[N+](=O)[O-] (centres undefined) | > 10000 | 680 | 883
COc1ccc(NC(=O)Cn2c(-c3ccc(OC)cc3)cn(-c3ccc(C)cc3)c2=O)cc1 | > 10000 | > 676 | 889
Cc1ccc(Sc2c(C)nn(C(=O)c3cccnc3)c2C)cc1 | > 10000 | > 677 | 322
Cc1ccc(NC(=O)c2cc(C(=O)c3cc(Cl)ccc3O)cn(-c3ccc(C)c(C)c3)c2=O)cc1C | > 100000 | 6900 | 8070
COC(=O)c1c(C)oc2ccc(N(C(=O)c3ccc(C)cc3)S(=O)(=O)c3ccccc3)cc12 | > 10000 | 690 | > 1680

Compound | CC50 [1] [nM] | EC50 (Plasmodium falciparum [2]) [nM] | EC50 (Plasmodium falciparum [3]) [nM]
COc1cc(NC(C)CCCN(Cc2ccccc2OC)C(=O)COCc2ccccc2)c2ncccc2c1 (centres undefined) | > 10000 | 689 | 1120
COc1cc(C=CC(=O)Nc2ccc3nc(N4CCN(c5ncccn5)CC4)cc(C)c3c2)cc(OC)c1OC | 7420 | 505 | 841
CC(C)(C)CC(C)(C)Nc1c(-c2ccccc2OC(=O)c2ccc(Br)cc2)nc2ccccn12 | > 1430 | 96 | 1310
CC(O)c1ccc(NC(=O)c2cnn3c2NC(c2ccco2)CC3C(F)(F)F)cc1 (centres undefined) | > 10000 | > 675 | > 1250
CN1CCN(c2cc(-c3cccnc3)nc(-c3ccncc3)n2)CC1 | > 9550 | 656 | 588
Cc1cccc(CN2CCC(CNC(=S)Nc3ccc4nc(N5CCN(C)CC5)cc(C)c4c3)CC2)c1 | > 100000 | 6760 | > 9900
CCC1=NN2C(=N)/C(=C/c3ccc(OCCOc4ccc(Br)cc4)c(OC)c3)C(=O)N=C2S1 | > 10000 | > 675 | > 1250
O=C1Nc2ccccc2C1=NN=Cc1ccc(-c2ccccc2[N+](=O)[O-])o1 | > 100000 | 6750 | > 12500
COc1cccc(CN2CCN(C3CCCC(C)C3)CC2)c1OC (centres undefined) | > 100000 | > 6700 | > 12500
COc1ccc(C=NNc2cc(C)nc(-c3ccccc3)n2)cc1OC | 48800 | 3300 | 8510
COc1ccc(C(=NO)C2CC2c2ccc(Cl)cc2)cc1 (centres undefined) | > 10000 | 668 | 735
CCCCCN(C(=O)c1cccc(C(F)(F)F)c1)C(CC)c1nc2ccccc2c(=O)n1-c1ccccc1OC (centres undefined) | > 10000 | 673 | 728
Cc1cccc(NC(=O)N2CCN(C(=O)c3nc(-c4ccccc4)nc(C)c3C(=O)OC(C)C)CC2C)c1C (centres undefined) | > 5760 | 384 | 509
CCC(=O)N1c2ccccc2NC2=C(C(=O)CC(C)(C)C2)C1c1ccc2c(c1)OCO2 (centres undefined) | > 100000 | 6720 | 3530
Cc1c(Cl)cccc1N1C(=O)C2C3c4ccccc4C(c4ccccc43)C2C1=O (centres undefined) | > 10000 | 686 | > 1610
COC(=O)C(C)NC(=O)c1ccc(F)cc1 (centres undefined) | > 10000 | 681 | > 1250
CC(=O)N(Cc1ccc(F)cc1)C1=C(NCc2ccccc2)C(=O)c2ccccc2C1=O | > 10000 | 679 | 680
Cc1sc2c(c1C)CN(Cc1ccco1)CN2C(=O)c1ccco1 | > 100000 | > 6910 | > 12500
COc1cc(NC(C)CCCN(Cc2ccc(OC)c(OC)c2)C(=O)c2ccccc2C)c2ncccc2c1 (centres undefined) | > 12200 | 831 | 867
Cc1ccc(NC(=O)C2C3C=CC4(O3)C2C(=O)N(Cc2cccnc2)C4C(=O)NC2CCCCC2)cc1 (centres undefined) | > 10000 | 682 | > 1640
O=C(CCl)Nc1ccc(N2CCCCCC2)cc1 | 19700 | 1330 | 1260
CC(C)(C)NS(=O)(=O)c1cc(Cl)ccc1Cl | > 10900 | 730 | > 1250
COc1ccc(N(C)C(=O)CNC(=O)c2nn(-c3ccc(OC)cc3OC)c(=O)c3ccccc23)cc1 | > 10000 | > 685 | > 1250
CC(C)[C@@]1(NC(=O)[C@@H]2C[C@@H]3c4cccc5[nH]cc(c45)C[C@H]3N(C)C2)O[C@@]2(O)[C@@H]3CCCN3C(=O)[C@H](CC3CCCCC3)N2C1=O | > 11400 | 768 | 1160
